# How the values were obtained:
# [1] = test system: XPCS2BA parental cell line; assay: Cell viability after IlludinS, parental ERCC3-deficient cell line (CellTiter-Glo); type: cell-based, human
# Procedure: (§1) To understand whether this variant has a deleterious effect on the gene function, we carried out a series of in vitro functional assays. Using a previously well characterized ERCC3 deficient cell line derived from an XP/CS patient (7), phenotype rescue after DNA damage was assessed by cell viability assay. […] Similarly, following UVC irradiation at a dose of 10 J/m^2, 72 hours post-exposure, 42% of the R109X cells survived compared to 63% of WT cells (P<0.0001). At a dose of […], these numbers reduced more drastically for the mutant, showing the same trend as the IlludinS exposure experiment. (FIG. 2D).
# (§2) For viability assessment following treatment with IlludinS (Cayman Chemical), cells were seeded into 96 well plates 24 hours prior to treatment. For post-UV viability assays, cells were exposed to the appropriate doses of UV irradiation and subsequently seeded into 96 well plates. Cell viability was measured after 72 hours using the CellTiter-Glo® Luminescent Cell Viability Assay (Promega).
# [2] = test system: XPCS2BA cells stably overexpressing ERCC3 R109X; assay: Cell viability after IlludinS, cells overexpressing the ERCC3 R109X mutant (CellTiter-Glo); type: cell-based, human
# Procedure: as §1, §2
# [3] = test system: XPCS2BA cells stably overexpressing ERCC3 WT; assay: Cell viability after IlludinS, cells overexpressing wild-type ERCC3 (CellTiter-Glo); type: cell-based, human
# Procedure: as §1, §2
# [4] = test system: parental HMLE cells; assay: Cell viability after IlludinS, parental mammary epithelial cells; type: cell-based, human; conditions: 2 ng/ml IlludinS, 72 hours
# Procedure: (§3) Overexpression of ERCC3 mutant constructs […] physiological levels of protein in a germline heterozygous mutation state within cells. Therefore, using CRISPR/Cas9, we engineered several heterozygous mutations in the mammary epithelial cell line HMLE that mimic the site of the originally discovered recurrent mutation in breast cancer individuals (Table 3, FIG. 4).
# as §2
# [5] = test system: CRISPR edited HMLE cell lines (ERCC3 heterozygous mutants); assay: Cell viability after IlludinS, CRISPR/Cas9 edited ERCC3 heterozygous mutant cells; type: cell-based, human
# Procedure: as §3, §2
# [6] = test system: γ-H2AX in HMLE control and ERCC3 CRISPR edited cell lines; type: cell-based, human; conditions: 8 ng/ml IlludinS for 1 h; ERCC3 CRISPR mutants vs wild type, P<0.05
# Procedure: To assess the induction and removal of phosphorylated H2AX in response to DNA damage we performed immunostaining and flow cytometric analysis of γ-H2AX positive cells following treatment with IlludinS.
# For flow cytometric analysis, 24 h after seeding, cells were either left untreated or were treated with 8 ng/ml IlludinS for 1 h. Treated cells were subsequently washed with PBS and supplemented with drug-free medium. The cells were harvested at different time points after treatment and fixed with 4% PFA for 10 min at RT. Cells were quickly chilled on ice and ice-cold MeOH was added to a final concentration of 90%. The cells were incubated on ice for 30 min and stored at −20° C. For immunostaining the cells were washed twice with PBS/0.5% BSA and incubated with anti phospho-Histone H2A.X (Ser139) Antibody (1:250; Cell Signaling Technology) for 1 h at RT, washed again and incubated with Alexa-488 conjugated secondary antibody for 45 min at RT. For each condition 20.000 cells were recorded and data from two replicate experiments was analyzed using the FlowJo software (V10.1).
# [7] = test system: HMLE+/R109X cells vs HMLE+/+ cells; assay: Cell viability after Irofulven, ERCC3 WT vs R109X heterozygous HMLE cells; type: cell-based, human; conditions: 72 hours, increasing doses
# Procedure: as §2
# (§4) In vitro experiments were performed to compare the effects of Irofulven on cell viability of ERCC3 WT HMLE cells and CRISPR-edited HMLE cells heterozygous for the ERCC3 R109X mutation. These same cell lines were used in Example 1 to assess sensitivity to IlludinS. Cell viability was assessed 72 hours following treatment of the cells with increasing doses of Irofulven. FIG. 11A provides the results in graphical form. Similar experiments were also performed using cells similar to those described above (i.e. that were either ERCC3 WT or R109X) but that also stably expressed mutant hRAS-V12. (These hRAS-V12 cells were used for xenograft generation in the in vivo experiments described below). FIG. 11B provides results showing the effects of Irofulven on cell viability of the +/+WT H-RAS-V12 HMLE cells the heterozygous+/−R109X H-RAS-V12 HMLE cells. The data shown in both FIG. 11A and FIG. 11B represents the mean of three experiments with error bars representing the SEM.
# [8] = test system: R109X H-RAS-V12 HMLE cells vs WT H-RAS-V12 HMLE cells; assay: Cell viability after Irofulven, hRAS-V12 expressing ERCC3 WT vs R109X HMLE cells; type: cell-based, human; conditions: 72 hours, increasing doses, hRAS-V12 HMLE R109X heterozygous
# Procedure: as §2, §4
# [9] = test system: ERCC3 WT HMLE HRAS-V12 tumors; assay: Mouse xenograft model, ERCC3 WT tumors; type: in vivo, athymic nude mice; conditions: 3.5 mg/kg or 7 mg/kg IP daily for 5 days per 21-day cycle
# Procedure: (§5) To assess the effect of the ERCC3 R109X mutation on Irolfulven sensitivity in vivo, a tumor xenograft system was generated and used. As described above, ERCC3 WT and ERCC3-mutant (R109X) cells were made in an HMLE HRAS-V12 background. These cells were injected into the flanks of athymic nude mice. The resultant tumors were allowed to grow to a size of about 100 mm^3. Treatment was then started. Either a vehicle control or Irofulven (at a dose of either 3.5 mg/kg or 7 mg/kg) was injected intraperitoneally (IP) daily for 5 consecutive days (the treatment “on” time), followed by a period of 16 days of treatment “off” time—making one 21-day cycle. Treatment cycles were then repeated. This treatment regimen was similar to that employed in several reported human clinical trials of Irofulven. The size of the tumors was measured weekly. […] In the ERCC3 WT xenograft group the average tumor size at treatment initiation was 97.7 mm^3 (74.6-120.3 mm^3). In the ERCC3 R109X xenograft group the average tumor size at treatment initiation was 172.8 mm^3 (101.8-238.6 mm^3). […] Additional experiments are underway to further validate these preliminary findings.
# [10] = test system: ERCC3 R109X HMLE HRAS-V12 tumors; assay: Mouse xenograft model, ERCC3 R109X mutant tumors; type: in vivo, athymic nude mice
# Procedure: as §5
# [11] = test system: ERCC3 expression in ERCC3 mutant tumors; assay: Real time PCR of ERCC3 transcript in xenograft tumors; type: in vivo, athymic nude mice; conditions: two treatment cycles of Irofulven
Structure (SMILES),"cells survived ([1]; 2 ng/ml IlludinS, 72 hours, XPCS2BA)","cell death ([1]; higher doses of IlludinS, untransfected cells)","cells survived ([2]; 2 ng/ml IlludinS, 72 hours, R109X overexpressing XPCS2BA)","cell death compared to ERCC3 WT ([2]; increasing doses of IlludinS, R109X overexpressing cells)","cells survived ([3]; 2 ng/ml IlludinS, 72 hours)",cell survival ([3]; 4 ng/ml IlludinS),cell survival [4],"cell survival ([5]; 2 ng/ml IlludinS, 72 hours, CRISPR edited HMLE, P<0.0001)","relative cell viability ([5]; 72 hours after exposure to IlludinS, ERCC3 CRISPR clones)",response to IlludinS after stable overexpression of WT ERCC3 (rescue) ([5]; ERCC3 CRISPR cell lines re-expressing WT ERCC3),reduction in γ-H2AX after DNA damage [6],sensitivity to Irofulven (inhibition of cell viability) vs ERCC3 WT cells [7],sensitivity to Irofulven (inhibition of cell viability) vs ERCC3 WT cells [8],tumor growth [9],tumor growth ([10]; 3.5 mg/kg or 7 mg/kg IP daily for 5 days per 21-day cycle),sensitivity to tumor inhibitory effects compared to ERCC3 WT tumors ([10]; preliminary studies),ERCC3 expression (relative transcript level) [11]
"CC1=C2C(=C[C@@](C)(CO)[C@@H]2O)C(=O)[C@](C)(O)C12CC2 [IlludinS, Illudin S]",3%,all died,42%,significantly higher cell death,77%,most of the WT cells survived,all the parental HMLE cells survived,significantly reduced survival,substantial reduction in relative cell viability,same response to IlludinS as the WT HMLE cell line,significantly lower,–,–,–,–,–,–
"CC1=C(CO)C2=C(C)C3(CC3)[C@@](C)(O)C(=O)C2=C1 [Irofulven, 6-hydroxymethylacylfulvene]",–,–,–,–,–,–,–,–,–,–,–,much more sensitive,much more sensitive,significant reduction,significant reduction,may have been more sensitive,upregulated
